In publication PMC11374673, “Discovery of isoquinoline sulfonamides as allosteric gyrase inhibitors with activity against fluoroquinolone-resistant bacteria” (Nature Chemistry, 2024):
≈ marks a conversion by molar mass, not a printed value. Read-outs that look alike come from different tables or passages of the source.

Assays:
E. coli W3110 = assay: MIC by broth microdilution; format: cell-based, Escherichia coli; conditions: Escherichia coli, W3110, WT, broth microdilution; read-out: MIC E. coli W3110
Outline: (§1)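 Exponential-phase cultures (OD600 0.5, 37 °C aerobic), diluted 100-fold in CAMHB, were added to twofold compound dilution series. Keio strains grown with 50 µg ml^−1 kanamycin. Plates incubated overnight at 37 °C, shaking at 600 r.p.m.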

K. pneumoniae ATCC 29665 = assay: MIC by broth microdilution; format: cell-based, Klebsiella pneumoniae; conditions: Klebsiella pneumoniae, ATCC29665, read-out: MIC K. pneumoniae ATCC 29665
Outline: as §1

P. aeruginosa ATCC 27853 = assay: MIC by broth microdilution; format: cell-based; conditions: Pseudomonas aeruginosa, ATCC27853; read-out: MIC P. aeruginosa ATCC 27853
Outline: (§2)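 Broth microdilution in CAMHB with twofold compound series; exponential-phase cultures (OD600 0.5) diluted 100-fold as inoculum, Keio strains pre-grown with 50 µg ml^−1 kanamycin. Overnight incubation at 37 °C, shaking 600 r.p.m. MIC is lowest concentration without visible growth, median of at least triplicates.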

[1] = system: S. aureus ATCC 29213 / ATCC BAA1717; assay: MIC by broth microdilution; format: cell-based; conditions: Staphylococcus aureus
Outline: as §2

[2] = system: E. coli BW25113 and single-gene knockouts; assay: MIC on E. coli strains of the Keio collection; format: cell-based, Escherichia coli; conditions: for MIC: Escherichia coli
Outline: as §2

E. coli ATCC 25922 = assay: MIC by broth microdilution; format: cell-based; conditions: Escherichia coli, ATCC25922, read-out: MIC E. coli ATCC 25922
Outline: as §1

[3] = system: clinical isolates of E. coli; assay: MIC against clinical isolates and potentiation by 4 µM PMBN; format: cell-based, Escherichia coli; conditions: for MIC: Escherichia coli
Method: (§3) MIC was determined by broth microdilution. Single-colony cultures were grown to exponential phase (OD600 of 0.5) aerobically at 37 °C. In case of strains from the Keio collection, 50 µg ml^−1 kanamycin was supplemented to the media to ascertain a homogeneous population. The bacterial suspensions were diluted 100-fold in CAMHB and 50 µl was added to a twofold serial dilution series of test compounds (50 µl per well) in polypropylene 96-well microtitre plates to reach a volume of 100 µl. The plates were sealed with breathable membranes and incubated overnight at 37 °C with constant shaking (600 r.p.m.).

[4] = system: 60-resistant (60-r) isolates of E. coli W3110; assay: microbe, parasite or virus in culture; format: cell-based, Escherichia coli; conditions: Escherichia coli
Outline: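 Broth microdilution MIC: exponential-phase cultures (OD600 0.5) diluted 100-fold in CAMHB, mixed 1:1 with twofold compound dilutions, 37 °C overnight, shaking at 600 r.p.m. MIC is lowest concentration without visible growth, median of at least triplicates.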

[5] = system: E. coli W3110 gyrA S97L, S83L, D87N; assay: MIC against CRISPR/Cas9 gyrA point mutants; format: cell-based, Escherichia coli; conditions: for MIC: Escherichia coli
Method: as §3, with “r.p.m.). The MIC was determined as the lowest concentration at which no visible bacterial growth was observed as compared with the inoculum controls from the median of a minimum of triplicates.” for “r.p.m.).”
Mutants of the DNA gyrase subunit A encoding gene (gyrA) were constructed following the protocol for gene editing via the CRISPR–Cas9 system. Strains and plasmids used are listed in Supplementary Table 15, and primers used can be found in Supplementary Table 16. The following mutations were created: S97L in E. coli W3110. Two common mutations in the gyrA gene that give resistance to fluoroquinolone antibiotics were created in E. coli W3110, namely S83L and D87N. To create the gyrA (S97L) mutants, the construct psgRNA-gyrA-M5 was assembled as follows: The 20-nt spacer sequence was introduced by PCR on pTargetF using primers gyrA_P11 and gyrA_P12, the homology-directed repair (HDR) arms were amplified from E. coli W3110 genomic DNA by PCR using primer pairs gyrA_P05 and gyrA_P013, and gyrA_P08 and gyrA_P14. The three PCR fragments generated were cloned into the SpeI and BglII digested pTargetF via Gibson assembly. To avoid off-target effects of CRISPR, besides desired point mutation for gyrA (S97L), four other silent point mutations were also included in the HDR template. Consequently, the amino acid sequence of gyrA will remain the same in the generated mutant except for the desired mutation. Similarly, constructs psgRNA-gyrA-S83L and psgRNA-gyrA-D87N were created to introduce mutations S83L and D87N in gyrA, respectively. In psgRNA-gyrA-S83L, spacer sequence was introduced using primers gyrA_P12 and gyrA_P17, HDR template was amplified using primer pairs gyrA_P05 and gyrA_P18, and gyrA_P08 and gyrA_P19. In psgRNA-gyrA-D87N, spacer sequence was introduced using primers gyrA_P12 and gyrA_P20, HDR template was amplified using primer pairs gyrA_P05 and gyrA_P21, and gyrA_P08 and gyrA_P22. The verified constructs for gyrA engineering were transformed into E. coli W3110 carrying pCas9, and plated in LB containing kanamycin (50 µg ml^−1) for the selection of the pCas9 plasmid and spectinomycin (100 µg ml^−1) for the selection of psgRNA-gyrA-X. The plates were incubated at 30 °C. Plasmids were cured by growing the strains with 0.5 mM isopropylthiogalactoside with no antibiotics to lose first the psgRNA-gyrA plasmids. After losing the spectinomycin resistance, the strain was grown in LB with no antibiotics at 42 °C to lose the pCas plasmid. Colony PCR was performed on plasmid-free colonies using primers gyrA_P9 and gyrA_P10, and PCR products were sequenced to confirm the desired mutation

Compound: O=S(=O)(NC[C@@H]1CC[C@H](c2ccc(-c3cccnc3)cc2)N1)c1cccc2cnccc12 [LEI-800]
- MIC (E. coli W3110): 3.1 µM (≈ 1.38 µg/mL)
- MIC (K. pneumoniae ATCC 29665): 6.25 µM (≈ 2.78 µg/mL)
- MIC (P. aeruginosa ATCC 27853): > 50 µM
- MIC ([1]; read-out: MIC S. aureus ATCC 29213): > 50 µM
- MIC ([1]; read-out: MIC S. aureus ATCC BAA1717): > 50 µM
- potency against ΔtolC efflux pump mutant [2]: No increase in potency
- MIC ([2]; BW25113, JW3594 ΔrfaD): 0.4 µM (≈ 0.178 µg/mL)
- MIC ([2]; BW25113, JW3596 ΔrfaC, LPS disruption (genetic)): 0.4 µM (≈ 0.178 µg/mL)
- MIC ([2]; BW25113, JW3600 ΔrfaY): 1.6 µM (≈ 0.711 µg/mL)
- MIC ([2]; BW25113, JW3602 ΔrfaI): 1.6 µM (≈ 0.711 µg/mL)
- MIC ([2]; BW25113, JW3605 ΔrfaP): 0.4 µM (≈ 0.178 µg/mL)
- MIC ([2]; BW25113, JW5503 ΔTolC): 3.1 µM (≈ 1.38 µg/mL)
- MIC ([2]; BW25113, read-out: MIC E. coli BW25113, parent strain): 3.1 µM (≈ 1.38 µg/mL)
- MIC (E. coli ATCC 25922): 6.25 µM (≈ 2.78 µg/mL)
- FC ([3]; E. coli 1075, fold change in MIC after 4 µM PMBN): > 4
- MSC ([3]; E. coli 1075, with 4 µM PMBN): 12.5 µM
- FC ([3]; E. coli 552059.1, fold change in MIC after 4 µM PMBN): 32
- MSC ([3]; E. coli 552059.1, with 4 µM PMBN): 0.78 µM
- FC ([3]; E. coli 552060.1, fold change in MIC after 4 µM PMBN): 16
- MSC ([3]; E. coli 552060.1, with 4 µM PMBN): 1.5 µM
- FC ([3]; E. coli MVAST0072, fold change in MIC after 4 µM PMBN): 16
- MSC ([3]; E. coli MVAST0072, with 4 µM PMBN): 1.5 µM
- FC ([3]; E. coli NCTC13463, fold change in MIC after 4 µM PMBN): 8
- MSC ([3]; E. coli NCTC13463, with 4 µM PMBN): 0.4 µM
- FC ([3]; E. coli NCTC13846, fold change in MIC after 4 µM PMBN): 4
- MSC ([3]; E. coli NCTC13846, with 4 µM PMBN): 12.5 µM
- FC ([3]; E. coli mcr-1, fold change in MIC after addition of 4 µM PMBN): 4
- MSC ([3]; E. coli mcr-1, with 4 µM PMBN): 6.25 µM
- MIC ([3]; CIP-resistant isolate 965 (MDR)): 12.5 µM
- MIC ([3]; CIP-resistant isolate 991, read-out: MIC): 25 µM
- MIC ([3]; CIP-resistant isolate 1022 (ESBL), read-out: MIC): 25 µM
- MIC ([3]; CIP-resistant isolate 1104 (MDR), read-out: MIC): 25 µM
- MIC ([3]; CIP-resistant isolate 1146 (MDR)): 6.25 µM
- MIC ([3]; CIP-resistant isolate 1175 (MDR), read-out: MIC): 25 µM
- MIC ([3]; CIP-resistant isolate 1192 (MDR), read-out: MIC): 50 µM
- MIC ([3]; CIP-resistant isolate 1201 (MDR)): 12.5 µM
- MIC ([3]; CIP-resistant isolate 1233, read-out: MIC): 12.5 µM
- MIC ([3]; E. coli 1075 (MDR), read-out: MIC): > 50 µM
- MIC ([3]; E. coli 552059.1, read-out: MIC): 25 µM
- MIC ([3]; E. coli 552060.1, read-out: MIC): 25 µM
- MIC ([3]; E. coli MVAST0072 (MDR), read-out: MIC): 25 µM
- MIC ([3]; NCTC13463, E. coli NCTC13463 (ESBL), read-out: MIC): 3.1 µM
- MIC ([3]; NCTC13846, E. coli NCTC13846 (MDR, mcr-1)): 50 µM
- FC ([3]; isolate 965, fold-change in MIC): 16
- MSC ([3]; isolate 965, with 4 μM PMBN): 0.8 µM
- FC ([3]; isolate 991, fold-change in MIC): 8
- MSC ([3]; isolate 991, with 4 μM PMBN): 3.1 µM
- FC ([3]; isolate 1022, fold-change in MIC): 16
- MSC ([3]; isolate 1022, with 4 μM PMBN): 1.6 µM
- FC ([3]; isolate 1104, fold-change in MIC): 16
- MSC ([3]; isolate 1104, with 4 μM PMBN): 1.6 µM
- FC ([3]; isolate 1146, fold-change in MIC): 8
- MSC ([3]; isolate 1146, with 4 μM PMBN): 0.8 µM
- FC ([3]; isolate 1175, fold-change in MIC): 8
- MSC ([3]; isolate 1175, with 4 μM PMBN): 3.1 µM
- FC ([3]; isolate 1192, fold-change in MIC): 16
- MSC ([3]; isolate 1192, with 4 μM PMBN): 3.1 µM
- FC ([3]; isolate 1201, fold-change in MIC): 8
- MSC ([3]; isolate 1201, with 4 μM PMBN): 1.6 µM
- FC ([3]; isolate 1233, fold-change in MIC): 8
- MSC ([3]; isolate 1233, with 4 μM PMBN): 1.6 µM
- MIC ([4]; E. coli W3110 60-r1): > 50 µM
- MIC ([4]; E. coli W3110 60-r3): 12.5 µM (≈ 5.56 µg/mL)
- MIC ([4]; E. coli W3110 60-r6): 12.5 µM (≈ 5.56 µg/mL)
- susceptibility of gyrA S83L / D87N mutants [5]: did not affect the susceptibility
- susceptibility of gyrA S97L mutant ([5]; CRISPR–Cas9 S97L): resistant
- MIC ([5]; E. coli W3110 gyrA D87N (FQ-resistant 2)): 6.25 µM (≈ 2.78 µg/mL)
- MIC ([5]; E. coli W3110 gyrA S83L (FQ-resistant 1)): 6.25 µM (≈ 2.78 µg/mL)
- MIC ([5]; E. coli W3110 gyrA S97L (LEI-800-resistant)): > 50 µM
